Laboratory results: patent US4314063A, “1-Ethyl-1,4,5,6-tetrahydro-6-(2-naphthyl)-4-oxo-nicotinic acid and lower alkyl esters thereof” (Hoffmann-La Roche Inc., priority 1981, dated 1982)
Counter-ions that a name gives are not always drawn.

Columns and labels:
Type in all cases: in vivo
rats = experiment: Turning rat test (rotation in rats with unilateral 6-OHDA lesion of the medial forebrain bundle); conditions: for minimal effective dose: Rattus norvegicus, ip, 1 h, i.p., active = more than 100 turns/hour, 5 rats per dose, read-out: Turning rat test minimum active dosage
Experimental: Female rats weighing 150 g are anaesthetised with pentobarbital (50 mg kg^-1 i.p.) and fixed in a stereotaxic apparatus (David Kopf). A unilateral (right side) injection into the MFB (medial forebrain bundle) of 6-OHDA (6-hydroxy-dopamine), 3 μg as base, dissolved in 4 μl of Ringer solution containing 0.02% ascorbic acid, is carried out through a stainless-steel cannula (diameter 0.3 mm) connected to a microsyringe. The liquid is injected at a speed of 1 μl min^-1 by means of a high precision infusion pump. In order to reach the MFB (medial forebrain bundle), the following coordinates are used: A=+3.8 mm, L (right)=0.9 mm, V=-3 mm according to the Atlas of Konig and Klippel.
After 3 weeks recovery period, the operated rats are injected with apomorphine, 1 mg kg^1- i.p. Those animals showing a regular contralateral (i.e., away from the lesioned side) turning, recorded automatically during 1 hour in a rotometer, are selected for further experiments. At least one week is allowed between each injection of screening compounds.
Drugs which induce rotation are dopamine receptor agonists. If the turning is contralateral (i.e., away from the lesioned side) the drugs are classified as "apomorphine-like", which indicates a direct dopamine-receptor stimulation (postsynaptic). The denervated striatum is more sensitive to dopamine receptor agonistes than the intact one. Agonists therefore affect the denervated striatum more than the intact one. This inbalance results in contralateral turning (rotation).
If the rotation is ipsilateral (i.e., towards the lesioned side), the drugs are classified as "amphetamine-like", which means that they release and/or block the reuptake of dopamine (presynaptic) from nerve terminals on the intact side, whereas they have little if any effect on the striatum with denervated dopamine neurons. The result of this inbalance is an ipsilateral turning.
The total number of ipsilateral or contralateral turns (full rotation around the vertical axes of the body) made by each rat, is automatically recorded over the time (usually 1 hour). 5 rats are injected for each dose and the mean of total turns per hour is determined.
A compound is said active, if it produces more than 100 turns/hour. If a drug induces rotation, but less than 100 turns/hour, it is indicated as slightly active. […] The results are expressed as: […]
Minimal effective dose--if the drug is active

[1] = LD50 (mouse), acute toxicity; conditions: in vivo, mouse
mouse = experiment: LD50 (mouse), acute toxicity; conditions: in words

SMILES	minimal effective dose (rats) [mg/kg]	strength of action compared with d-amphetamine and d-methamphetamine (rats; in words, versus d-amphetamine and d-methamphetamine, see Table I)	action compared with nomifensin (rats; in words, versus nomifensin, see Table I)	LD50 ([1]; po) [mg/kg]	LD50 compared with d-amphetamine and d-methamphetamine (mouse; versus d-amphetamine and d-methamphetamine)	LD50 compared with nomifensin (mouse; versus nomifensin)	LD50 ([1]; iv) [mg/kg]	LD50 ([1]; sc) [mg/kg]
CCn1cc(C(=O)O)c(=O)cc1-c1ccc2ccccc2c1 [1-ethyl-1,4-dihydro-6-(2-naphthyl)-4-oxonicotinic acid]	1	about the same strength of action	substantially superior to nomifensin	170	substantially lower LD50	about the same LD50	–	–
CN1Cc2c(N)cccc2C(c2ccccc2)C1 (stereo not drawn) [Nomifensin, 8-amino-1,2,3,4-tetrahydro-2-methyl-4-phenylisoquinoline]	3	–	–	300 to 600	–	–	–	–
C[C@H](N)Cc1ccccc1 [d-Amphetamine . 1/2 H2 SO4]	1	–	–	35	–	–	14	22
CN[C@@H](C)Cc1ccccc1 [d-Methamphetamine . HCl]	1	–	–	–	–	–	9.5	14
